# Reference: patent EP0476120B1, “PROCESS FOR PREPARING EQUIMOLAR SALTS OF ASPARTIC ACID AND MAGNESIUM, MAGNESIUM ASPARTATE SALT OBTAINED BY SAID PROCESS AND ITS APPLICATIONS” (LA[…] SPINDLER, priority 1990, dated 1991)
# Like-named read-outs stand apart in the source and are kept apart here.
# Legend:
# souris = settings: mouse; for Nombre de passages (moyenne): 60 min before test, controls 5,5
# Excerpt: Le test est pratiqué chez des souris NMRI-HAN soumises à une diète hydrique préalable de 18 heures et réparties en séries de 15.
# L'appareillage utilisé consiste en une boite en plexiglas dont le sol est constitué de 4 plaques métalliques séparées les unes des autres. Un circuit d'alimentation permet d'établir une différence de potentiel entre deux plaques adjacentes grâce à un contacteur. Le test est pratiqué en plaçant doucement une souris sur une des plaques du fond de l'appareil ; les plaques sont électrifiées chaque fois que la souris passe de l'une à l'autre, de telle sorte qu'elle reçoit alors un choc électrique au niveau des pattes. Les paramètres du choc sont les suivants : durée de l'impulsion électrique égale à 0,5 seconde ; intensité égale à 0,6 milliampères. Ce choc induit chez les animaux une réaction motrice évidente de fuite, la souris traversant souvent 2 à 3 plaques successivement. Les conditions expérimentales adoptées ont été les suivantes : exploration libre pendant 15 secondes, traversée punie pendant la minute suivante, les résultats étant exprimés en nombre de passages "punis" pendant cette minute. Soixante souris ont été réparties de la façon suivante :
# Les administrations ont été réalisées par voie intra-gastrique, à partir de solutions aqueuses, sous un volume constant de 20 ml.kg⁻¹, 60 minutes avant le début du test. Les animaux contrôles ont reçu un même volume d'eau distillée.
# Les administrations ont été réalisées par voie intra-gastrique, à partir de solutions aqueuses, sous un volume constant de 20 ml.kg⁻¹ par produit 60 minutes avant le début du test. Les animaux contrôles ont reçu un même volume d'eau distillée.
# Dans un premier temps a été calculée la DA 50 (dose anxiolytique 50) du Diazépam (Valium® 10 mg - Roche, ampoule 2ml) seul, administré à des doses suivant une progression géométrique de base 0,25 et de raison 2, soit respectivement 0,25, 0,5 l et 2 mg.kg⁻¹.
# La DA 50 est déterminée à partir du pourcentage d'animaux tranquillisés. Est considéré comme tranquillisé tout animal dont le nombre de passages punis est égal ou supérieur à 9, c'est-à-dire à une valeur représentant une augmentation d'au moins 50 % par rapport au score moyen d'animaux non traités.
# Toutes les administrations ont été réalisées par voie intra-gastrique à partir de solutions aqueuses, sous un volume constant de 20 ml.kg⁻¹ (eau distillée pour le groupe contrôle). […] La veille du test, les souris sont soumises à une diète hydrique de 18 heures. La dernière ingestion est pratiquée une heure avant l'étude, concomitamment avec le diazépam (Valium® 10 mg - Roche, ampoules de 2 ml).
# [1] = test system: singes cynomolggus (Macaca fascicularis); settings: monkey
# Excerpt: L'étude a été réalisée chez sept singes cynomolggus (Macaca fascicularis), de sexe mâle et femelle, pesant entre 2 et 5 kg.
# Un mois avant le début de l'étude, sous anesthésie générale (kétamine + xylazine) huit électrodes (boules d'argent) ont été implantées dans la table osseuse, au niveau des aires frontale, centrale, pariétale et occipitale droites et gauche. L'électrocorticogramme a été enregistré sur un électroencéphalographe REEGA mini-huit (Alvar Electronic) en dérivations monopolaires par rapport à une référence commune.
# Les enregistrements ont été réalisés sur des animaux habitués au siège à contention, en position assise, dans une pièce calme mais non insonorisée, en ambiance lumineuse tamisée.
# Les huit dérivations EEG ont été analysées simultanément par un Neuromapper 1620 (Neuroscience) qui extrait du signal les transformées de Fourier ("Fast Fourier Transform" : FFT). En fait, 90 échantillons de 2 secondes, soit 3 minutes de tracé exempt d'artefact, ont été analysés. Les données recueillies correspondent à l'amplitude (»V) de chacune des 5 bandes de fréquence EEG classiques selon les bornes suivantes : delta de 0 à 4 Hz ; thêta de 7 à 8 Hz ; alpha de 8 à 13 Hz, bêta₁ de 13 à 20 Hz ; bêta₂ de 20 à 30 Hz.
# Pour chacune de ces bandes ont ensuite été calculées : • Les puissances absolues en »V² • les puissances relatives (%), c'est-à-dire la puissance de chacune des bandes de fréquence rapportée à la puissance totale du spectre (power) • la "SEF 95 % (Spectral Edge Frequency 95 %) qui est la fréquence en deçà de laquelle se situent 95 % de la puissance totale du spectre, • le rapport entre fréquences rapides et fréquences lentes : alpha+ bêta/delta + thêta ( α+β/δ+ϑ [formula] )
# La dernière ingestion a précédé de 1 heure la seconde administration de diazépam.
# Le diazépam (ampoules injectables - Valium® 10 - Roche) a été administré par voie orale, en solution aqueuse, sous un volume de 10 ml/singe, à des doses comprises entre 0,5 mg.kg⁻¹ et 4 mg.kg⁻¹ (doses différentes du fait d'une sensibilité individuelle propre à chaque sujet).
# 100 (le seuil de probabilité statistique choisi peut paraître élevé ; il est en rapport avec le faible nombre de sujets : n=7). L'ensemble de l'analyse statistique a été obtenu grâce au programme statistique SPSS/PC⁺ (SPSS Inc., Chicago)
smiles,measurement,setting,value
"CN1C(=O)CN=C(c2ccccc2)c2cc(Cl)ccc21 [Diazépam, reference compound]",Nombre de passages (moyenne),"souris; Valium alone 0,5 mg.kg⁻¹ P.O.","7,7"
same,Nombre de passages (moyenne),"souris; Valium alone 0,25 mg.kg⁻¹ P.O.","7,3"
same,Nombre de passages (moyenne),souris; Valium alone 1 mg.kg⁻¹ P.O.,"9,5"
same,Nombre de passages (moyenne),souris; Valium alone 2 mg.kg⁻¹ P.O.,"10,6"
same,DA 50 (dose anxiolytique 50),"souris; diazepam alone P.O., from % tranquillised animals (>= 9 punished crossings)","0,76 mg.kg⁻¹"
same,durée de l'action,"[1]; diazepam alone 0,5-4 mg.kg⁻¹ P.O.",jusqu'à la 5ème heure
same,valeurs du rapport α+β/δ+ϑ,"[1]; diazepam alone 0,5-4 mg.kg⁻¹ P.O., figure 4",augmentation durable
same,acmé de l'effet,"[1]; diazepam alone 0,5-4 mg.kg⁻¹ P.O., time after ingestion",45 minutes à une heure
same,proportion relative de la bande β₂,"[1]; diazepam alone 0,5-4 mg.kg⁻¹ orally, at peak effect one hour after ingestion, reference 20 %",27%
same,"""SEF 95 %"": temps du maximum","[1]; diazepam alone (first test), figure 3",30 min
